The values below come from article PMC10005185, “Structure-guided engineering of a receptor-agonist pair for inducible activation of the ABA adaptive response to drought” (Science Advances, 2023).

One may read the IC50 as the midpoint of a concentration-inhibition curve. For orientation: Kd means the free concentration of one partner at which half of the binding sites on the other are occupied at equilibrium, for simple one-to-one binding. A lower Kd goes with higher affinity.

For one test, the target named is T1, ABI1 with AtPYR1 (Arabidopsis thaliana, UniProt O49686).
T1 construct: His; made in house
Kind of test: PP2C inhibition assay, ABI1 with AtPYR1. The test is classed as biochemical. As to the method:
(§1) His-tagged receptors and phosphatases were purified using nickel–nitrilotriacetic acid (Ni-NTA) affinity chromatography. Protein integrity was analyzed by SDS–polyacrylamide gel electrophoresis, followed by InstantBlue staining. Phosphatase activity was measured using p-Nitrophenyl Phosphate (pNPP) (25 mM) as substrate, 10 mM MnCl2,1 μM PP2C, and 2 μM of the indicated receptors. Proteins were incubated with the ligands for 10 min at room temperature. pNPP was then added to start the reactions, and the absorbance at 405 nm was monitored for 20 min in a ViktorX5 plate reader. Assays were repeated twice. For dose-response experiments, IC50 values were obtained with GraphPad Prism 9 using a nonlinear regression curve fit. Each ligand concentration was tested in triplicate. Phosphatase activity of ABI1 was measured using RRA(phosphoT)VA peptide as a substrate, as described ([27]). […]
(§2) (D) Dose response analysis of iSB09 or ABA-dependent inhibition of ABI1 (blue and black lines, respectively) in presence of either AtPYL1 or AtPYR1. Values (average of duplicates) show PP2C activity after incubation with the indicated concentration of ligand and receptor at 1:2 ratio (1 µM phosphatase:2 µM receptor). […]
(§3) whereas with AtPYR1 was 200 nM and 213 nM, for ABA and iSB09, respectively. Ligands were assayed

In test [1] the test system is Nicotiana benthamiana WT plants. Description: IR thermography of leaf temperature, N. benthamiana. The following applies: nontransformed leaves, 24 hours after spraying, 50 μM ABA or 100 μM iSB07 or iSB09, compared to mock. The test is classed as in vivo. The method, then: IR images were taken using a FLIR […] thermocamera 1 day after the treatment (for N. benthamiana) or 2 and 5 days (for S. lycopersicum). Quantification was performed using the FLIR tools software on fully expanded leaves by analyzing 10 sections per leaf. At least six plants per genotype and treatment were analyzed in each experiment. Experiments were repeated twice. The average plant temperature ± SD of all the plants for each treatment and genotype was calculated and used to report the increase in temperature produced by each treatment. Statistical comparisons among genotypes were performed by either pairwise t tests or one-way ANOVA.

The next test concerns the target T2, ABI1 with AtPYL1 (Arabidopsis thaliana, UniProt Q8VZS8).
T2 construct: His; made in house
Description: PP2C inhibition assay, ABI1 with AtPYL1. Format: biochemical. The method, then:
as §1, §2, §3

The next test has as its target AtPYL5:ΔNHAB1 (Arabidopsis thaliana, UniProt Q9FLB1). Kind of test: Native red electrophoresis of ligand-induced ternary complex.
In test [2] the test system is Arabidopsis thaliana seeds (WT Col-0, CsPYL1 and CsPYL1^5m lines). Description: Seed germination assay. The test is classed as in vivo. To be noted: Arabidopsis thaliana. The method, then: For seed germination assays, seeds were stratified in the dark at 4°C for 3 days. Approximately 100 seeds of each genotype were sown on MS plates supplemented with six different ligand concentrations. The experiments were repeated three times. To score seed germination, radical emergence was analyzed at 24 hours after sowing.

The subject of the next test is AtHAB1ΔN with CsPYL1^5m. Kind of test: PP2C inhibition assay, HAB1 with CsPYL1^5m. The test is classed as biochemical, Citrus sinensis (CsPYL1^5m); Arabidopsis thaliana (HAB1). As to the method:
His-tagged receptors and phosphatases were purified using nickel–nitrilotriacetic acid (Ni-NTA) affinity chromatography. Protein integrity was analyzed by SDS–polyacrylamide gel electrophoresis, followed by InstantBlue staining. Phosphatase activity was measured using p-Nitrophenyl Phosphate (pNPP) (25 mM) as substrate, 10 mM MnCl2,1 μM PP2C, and 2 μM of the indicated receptors. […] Assays were repeated twice. For dose-response experiments, IC50 values were obtained with GraphPad Prism 9 using a nonlinear regression curve fit. Each ligand concentration was tested in triplicate. Phosphatase activity of ABI1 was measured using RRA(phosphoT)VA peptide as a substrate, as described ([27]).

Test [3] concerns Arabidopsis thaliana seedlings (WT Col-0, overexpressing lines, receptor mutants). The following applies: pyr1 pyl1 double mutant ref 36; cited from earlier work.
Another test concerns the target T3, ΔNHAB1 with AtPYL1 (Arabidopsis thaliana, UniProt Q8VZS8).
T3 construct: His; made in house
To be noted: AtPYL1 ref 45; cited from earlier work.

The target in a further test is T4, HAB1 with AtPYL4 (Arabidopsis thaliana, UniProt O80920).
T4 construct: His; made in house
Description: PP2C inhibition assay, HAB1 with AtPYL4. The test is classed as biochemical. The following applies: 1 µM phosphatase:2 µM receptor. The method, then: His-tagged receptors and phosphatases were purified using nickel–nitrilotriacetic acid (Ni-NTA) affinity chromatography. Protein integrity was analyzed by SDS–polyacrylamide gel electrophoresis, followed by InstantBlue staining. Phosphatase activity was measured using p-Nitrophenyl Phosphate (pNPP) (25 mM) as substrate, 10 mM MnCl2,1 μM PP2C, and 2 μM of the indicated receptors. Proteins were incubated with the ligands for 10 min at room temperature. pNPP was then added to start the reactions, and the absorbance at 405 nm was monitored for 20 min in a ViktorX5 plate reader. Assays were repeated twice. For dose-response experiments, IC50 values were obtained with GraphPad Prism 9 using a nonlinear regression curve fit. Each ligand concentration was tested in triplicate. Phosphatase activity of ABI1 was measured using RRA(phosphoT)VA peptide as a substrate, as described ([27]).
(§4) Fig. S6. QB lacks bioactivity in tomato whereas iSB09 is
(§5) (A) Quantification of the leaf temperature difference at 2 and 5 days after spraying tomato plants with 0.1 % DMSO
(§6) (mock- treated control), 10 µM iSB09 or 10 µM QB.
Asterisk indicates p<0.001 (Student’s t test). Values show individual points and average ± SD (n=4 replicates for mock and chemical treatments). (B) IR-images of representative tomato plants at 2 days after being treated with 0.1 % DMSO […]

For a further test, the system named is tomato plants. Kind of test: IR thermography of leaf temperature, tomato. The test is classed as in vivo, Solanum lycopersicum. To be noted: 10 μM, 2 and 5 days after spraying. The method, then:
For experiments using N. benthamiana or S. lycopersium, 1-month-old plants grown under long-day conditions (16-hour light/8-hour dark) were sprayed with 10 mM MES (pH 5.7) + 0.02% Silwet L77 supplemented with either 50 μM ABA, or the indicated concentration of iSB07/iSB09 or 0.1% DMSO as a mock-treated control. IR images were taken using a FLIR E95 thermocamera 1 day after the treatment (for N. benthamiana) or 2 and 5 days (for S. lycopersicum). Quantification was performed using the FLIR tools software on fully expanded leaves by analyzing 10 sections per leaf. At least six plants per genotype and treatment were analyzed in each experiment. Experiments were repeated twice. The average plant temperature ± SD of all the plants for each treatment and genotype was calculated and used to report the increase in temperature produced by each treatment. Statistical comparisons among genotypes were performed by either pairwise t tests or one-way ANOVA.
as §4, §5, §6
Asterisk indicates p<0.001 (Student’s t test). Values show individual points and average ± SD (n=4 replicates for mock and chemical treatments). (B) IR-images of representative tomato plants at 2 days after being treated with 0.1 % DMSO
Photographs were taken with white light (leaf panel) or infrared thermography (right panel) using the camera FLIR
HAB1 phosphatase activity in presence of PYL4. IC50 values for iSB09 or QB-dependent inhibition of HAB1 by AtPYL4. Values (average of duplicates) show PP2C activity after incubation with the indicated concentration of ligand and AtPYL4 at 1:2 ratio (1 µM phosphatase:2 µM receptor).
(1 picture or pasted object on this page, not shown here)

The target of another test is T5, ΔNHAB1 with AtPYL10 (Arabidopsis thaliana, UniProt Q8H1R0).
T5 construct: His; made in house
To be noted: AtPYL10 ref 45; cited from earlier work.

The test system of test [4] is Arabidopsis thaliana plants. Kind of test: IR thermography of leaf temperature, arabidopsis. Format: in vivo. The following applies: transgenic CsPYL1^5m lines and Col-0, 50 μM, 24 hours after spraying. The method, then:
A. thaliana plants were grown in a controlled environment growth chamber at 21°/19°C under 8-hour light/16-hour dark photoperiod at 100 μE m^−2 s^−1. IR thermography images of rosette leaves were acquired with a thermal camera FLIR E95 equipped with a 42° lens, 24 hours after spraying 6-week-old plants with 10 mM MES (pH 5.7) + 0.02% Silwet L-77 plus 50 μM ligand or 0.1% DMSO as a control. Images were processed and quantified with the FLIR tools software. The average temperature of 15 different sections taken from four to six leaves per plant was used for quantification. At least six plants per genotype were analyzed, and the experiments were repeated twice. Statistical analysis was performed using GraphPad Prism 9. T test or ANOVA analysis was carried out to identify statistical significance among datasets.

Test [5] concerns Arabidopsis thaliana seedlings. Description: Root growth assay. Format: in vivo. To be noted: 10 μM. The method, then:
Seedlings were grown on vertically oriented Murashige and Skoog (MS) plates for 4 to 5 days. Afterward, seedlings were transferred to MS supplemented with the indicated concentrations of the different ligands and kept on vertical orientation. Ten days later, the plates were scanned on a flatbed scanner to produce image files suitable for quantitative analysis of root growth using the NIH Image software ImageJ. The experiment was performed in triplicate (n = 13 to 16). Statistical comparisons were performed by either pairwise t tests or one-way ANOVA using GraphPad Prism 9.

In test [6] the test system is MAPKKK18 promoter-LUC reporter. Description: pMAPKKK18-LUC luciferase reporter assay. The following applies: 100 μM, 6 hours. Format: in vivo, Arabidopsis thaliana. The method, then:
[…]18-LUC seedlings were grown in 24-well plates (25 to 35 seeds per well) filled with 1 ml of liquid MS medium for 7 days. MS medium was replaced with fresh medium supplemented with 100 μM D-luciferin, potassium salt (GoldBio), and the indicated treatments with iSB07, iSB09, or ABA. Seedlings were incubated for 6 hours, and luminescence was recorded with a LAS-3000 imager (Fujifilm) equipped with a charge-coupled device camera using 2-min exposures. Eight-bit images were transformed in rainbow false color and quantified using Fiji. The experiment was repeated at least twice.
For orientation: Reporter assays use an easily measured gene product as a stand-in for the process of interest.

Test [7] deals with Arabidopsis thaliana plants (WT Col-0, CsPYL1^5m lines). Kind of test: Whole-plant gas exchange, stomatal conductance (Gs). The test is classed as in vivo. As to the method:
A. thaliana seeds were planted in specific gas exchange pots, where above- and below-ground parts can be separated by glass into 2:1 (v:v) peat:vermiculite mixture. The plants were grown in growth chambers (Snijders Scientific, Drogenbos, Belgium) at 12/12 photoperiod, 23/18°C temperature, 160 μmol m^−2 s^−1 light, and 70% relative humidity and were 23 to 28 days old during gas exchange experiments. Whole-rosette stomatal conductances were recorded with an eight-chamber custom-built temperature-controlled gas exchange device as described before ([72]). Plants were inserted into the measurement cuvettes and allowed to stabilize at standard conditions: ambient CO2, ~420 ppm; air temperature, 24° ± 0.5°C; light, 160 μmol m^−2 s^−1; relative air humidity, 66 ± 3%. For sprayings, plants were removed from gas exchange cuvettes, sprayed with respective solutions, and put back into the cuvettes for stomatal conductance recordings for 56 min. To check the long-term effect of compounds on plants, stomatal conductance measurements were performed about 24 and 48 hours after sprayings. In the meantime, plants were kept in growth chambers as described above. Photographs of plants were taken after the experiment, and leaf rosette area was calculated using ImageJ 1.37v [National Institutes of Health (NIH), USA]. Stomatal conductance for water vapor was calculated with a custom-written program as described ([72]).

Read-outs that look alike come from different tables or passages of the source.

T2 sequence (Q8VZS8 whole entry): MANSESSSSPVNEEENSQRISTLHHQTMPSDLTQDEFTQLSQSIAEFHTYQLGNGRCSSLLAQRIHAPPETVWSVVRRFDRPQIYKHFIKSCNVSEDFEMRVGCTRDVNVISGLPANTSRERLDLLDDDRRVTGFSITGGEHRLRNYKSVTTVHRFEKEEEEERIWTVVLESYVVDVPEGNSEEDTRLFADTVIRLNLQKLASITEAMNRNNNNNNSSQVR
T2 sequence (P49597 whole entry partner): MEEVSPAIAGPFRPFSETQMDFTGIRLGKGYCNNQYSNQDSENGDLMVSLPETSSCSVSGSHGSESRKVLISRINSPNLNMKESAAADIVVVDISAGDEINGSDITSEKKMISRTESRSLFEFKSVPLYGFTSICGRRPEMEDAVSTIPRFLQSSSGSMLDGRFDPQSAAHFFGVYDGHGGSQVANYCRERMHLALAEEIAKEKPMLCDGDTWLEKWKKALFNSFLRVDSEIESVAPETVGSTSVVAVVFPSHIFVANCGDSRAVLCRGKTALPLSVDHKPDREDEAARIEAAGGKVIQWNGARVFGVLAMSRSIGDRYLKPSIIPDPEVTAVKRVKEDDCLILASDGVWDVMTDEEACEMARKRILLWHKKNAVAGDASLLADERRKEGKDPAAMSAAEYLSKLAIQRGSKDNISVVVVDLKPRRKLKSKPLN
T3 sequence (Q8VZS8 whole entry, stated change not applied): as the sequence (Q8VZS8 whole entry) above
Sequence of AtPYL5:ΔNHAB1 (Q9FLB1 whole entry, stated change not applied): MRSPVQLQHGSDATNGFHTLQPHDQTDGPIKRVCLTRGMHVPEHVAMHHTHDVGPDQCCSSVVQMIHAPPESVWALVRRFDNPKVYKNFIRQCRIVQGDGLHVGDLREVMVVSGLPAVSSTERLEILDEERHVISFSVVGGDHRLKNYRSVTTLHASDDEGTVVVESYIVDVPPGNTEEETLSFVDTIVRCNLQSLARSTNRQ
T1 sequence (O49686 whole entry): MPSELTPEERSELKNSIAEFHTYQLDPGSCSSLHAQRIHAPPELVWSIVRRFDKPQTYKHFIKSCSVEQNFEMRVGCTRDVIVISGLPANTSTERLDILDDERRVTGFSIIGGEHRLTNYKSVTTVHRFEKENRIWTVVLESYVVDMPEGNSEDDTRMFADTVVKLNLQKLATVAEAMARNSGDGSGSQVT
T1 sequence (P49597 whole entry partner): as the sequence (P49597 whole entry partner) above
T4 sequence (Q9CAJ0 179-511): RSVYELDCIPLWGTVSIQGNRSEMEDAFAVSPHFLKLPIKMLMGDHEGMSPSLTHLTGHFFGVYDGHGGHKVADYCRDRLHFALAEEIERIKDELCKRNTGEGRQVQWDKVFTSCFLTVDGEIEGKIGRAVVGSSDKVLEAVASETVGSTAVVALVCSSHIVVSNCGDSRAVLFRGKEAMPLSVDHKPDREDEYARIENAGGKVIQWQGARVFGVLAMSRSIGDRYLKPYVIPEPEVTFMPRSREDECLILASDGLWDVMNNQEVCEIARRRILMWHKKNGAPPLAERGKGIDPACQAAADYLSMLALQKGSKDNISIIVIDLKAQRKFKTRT
T4 sequence (O80920 whole entry): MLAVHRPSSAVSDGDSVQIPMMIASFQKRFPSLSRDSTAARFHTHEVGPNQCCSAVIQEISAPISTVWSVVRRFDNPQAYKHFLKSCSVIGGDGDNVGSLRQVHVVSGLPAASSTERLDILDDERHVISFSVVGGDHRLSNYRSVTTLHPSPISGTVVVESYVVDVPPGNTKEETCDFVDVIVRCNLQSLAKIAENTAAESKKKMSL
T5 sequence (Q8H1R0 whole entry, stated change not applied): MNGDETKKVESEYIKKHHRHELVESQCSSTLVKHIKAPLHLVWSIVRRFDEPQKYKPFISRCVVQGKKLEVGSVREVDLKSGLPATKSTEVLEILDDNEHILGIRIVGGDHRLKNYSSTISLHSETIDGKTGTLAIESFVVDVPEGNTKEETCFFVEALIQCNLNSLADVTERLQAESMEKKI
Description for AtPYL5:ΔNHAB1: Electrophoresis was performed at a constant current of 25 mA for 150 min at 4°C. Proteins were detected in gel by InstantBlue staining, and band quantification was performed using the ImageJ software. To obtain apparent Kd values, the proportion of ternary complex formed (fraction bound) and the ABA or iSB09 free concentration in each lane were calculated and plotted as represented in Fig. 3 (E and F). Then, the dose-response curves were fitted to the classical Hill equation using the GraphPad Prism software.

Regarding `CC1=CC(=O)CC(C)(C)[C@@]1(O)/C=C/C(C)=C\C(=O)O` [ABA, abscisic acid, reference compound], the IC50 turned out to be 200 nM against ABI1 with AtPYR1; 274 nM on ABI1 with AtPYL1; 216 nM in test [2] (read-out: Germination IC50, WT Col-0); 304 nM in [2] (read-out: Germination IC50, line expressing CsPYL1); 458 nM in test [2] (read-out: Germination IC50, line expressing CsPYL1^5m). Also, the “leaf temperature by thermal imaging” value in [1] is recorded as “increased leaf temperature”. At AtPYL5:ΔNHAB1, the affinity, expressed as Kd, was 2100 nM. Also, the “IC50 of ABA for CsPYL1^5m compared to WT CsPYL1” value in the test on AtHAB1ΔN with CsPYL1^5m is given as “fourfold increase”.
For `CCCN1C(=O)CCc2cc(NS(=O)(=O)Cc3c(F)c(F)c(C)c(F)c3F)ccc21` [AMF4], in [3], the “effect in pyr1 pyl1 double mutant” value is reported as “lack effect”.
For the compound `CCCN1C(=O)CCc2cc(NS(=O)(=O)Cc3ccc(C)cc3)ccc21` [QB, quinabactin], in [3], the “effect in pyr1 pyl1 double mutant” value was “lack effect”. The results for the receptor activation result on ΔNHAB1 with AtPYL1 and at ΔNHAB1 with AtPYL10 were “activates AtPYL1” and “not AtPYL10”, respectively. At HAB1 with AtPYL4, this compound gave an IC50 of 1880 nM. Besides, in the test with tomato plants, the “bioactivity in tomato (leaf temperature)” value was “lacked bioactivity”.
In the case of `Cc1cc(=O)n(C)c2ccc(CNS(=O)(=O)c3ccccc3)cc12` [iSB07], the “leaf temperature by thermal imaging” value in [4] and in [1] was “increased leaf temperature” each time. Further, the “inhibition of root growth” value is listed as “marked inhibition” in test [5] (CsPYL1^5m lines) and “did not significantly inhibit” in test [5] (WT plants). Moreover, the “induction of LUC relative to iSB09” value in test [6] is on record as “approximately fivefold lower”. Also, in [7] (WT, spraying with 20 μM), the “reduction of stomatal conductance (Gs)” value is recorded as “not effective”. The “reduction of Gs 24 and 48 hours after spraying” value in test [7] (transgenic lines, 5 μM) is reported as “nonsignificant”. The IC50 in test [2] (WT Col-0, read-out: Germination IC50) was determined as 12700 nM; in test [2] (line expressing CsPYL1, read-out: Germination IC50), 4030 nM; in test [2] (line expressing CsPYL1^5m, read-out: Germination IC50), 943 nM.
